The values that follow come from US10450300B2, “Wnt signaling pathway inhibitors and therapeutic applications thereof” (Suzhou Yunxuan Yiyao Keji Youxian Gongsi, priority 2015, dated 2019).

For the assay, the system named is Wnt pathway. Description: Wnt pathway Super-top flash (STF) reporter gene assay (primary assay). The assay is classed as cell-based. As to conditions: HEK293 STF cells co-cultured 1:1 with L Wnt3A cells; 48 h incubation; inhibition of luminescence signaling. On the procedure: The primary assay is based on Wnt pathway Super-top flash (STF) reporter gene assay:
HEK293 STF stable clones (HEK293 cells stably transfected with “Super-Top Flash” TCF-luciferase reporter plasmid) were kept in complete culture medium (DMEM with 4 mM L-Gln, 1.5 g/L sodium bicarbonate and 4.5 g/L glucose containing 6 μg/mL Blasticidin and 10% FBS). L Wnt3A cells (CRL-2647, ATCC) were kept in DMEM (Gibico) containing 10% FBS (Hyclone). HEK293 STF and L Wnt3A cells were harvested when 90% confluence and cell suspension was mixed with a fixed ratio of 1:1 (HEK293 STF: L Wnt3A). 100 μL/well of mixed cells suspension was added to the 96-well-plate with final cell concentration of 12,000 cells/well and then cultured for an additional 24 hours before adding compounds.
Compounds were diluted in DMSO in sequence and then diluted with DMEM medium. 20 μL medium containing compound was added to the cells according to the pre-setting dose. Cell plates were incubated at 37° C. for an additional 48 hours.
50 μL luciferase solution (Bright-Glo, Promega) was added to each well […] the 48 h incubation. The plates were incubated at room temperature for 5 min under gentle shaking. Luminescence signaling was measured with a plate reader (PHERAstar FS, BMG). The IC50 (potency) of compounds was calculated based on the inhibition of luminescence signaling.
(In a reporter assay the amount or activity of a reporter protein is the signal.)
Consider `Cc1cc(-c2ccc(CNc3ncnc(-c4ccc5ccccc5c4)c3F)cc2)ccn1` [Compound A-1, 5-fluoro-N-(4-(2-methylpyridin-4-yl)benzyl)-6-(naphthalen-2-yl)pyrimidin-4-amine], for which the half-inhibitory concentration (IC50) (in general, the concentration needed to halve the response being measured) is 1.4 nM.

On to `Cc1cc(-c2ccc(CNc3ncnc(-c4cnc5ccccc5c4)c3F)cc2)ccn1` [Compound A-2], for which the IC50 came to 2.9 nM.

As for `Cc1cc(-c2ccc(CNc3ncnc(-c4ccc5cccnc5c4)c3F)cc2)ccn1` [Compound A-3], the IC50 stood at 36 nM.

As for `Cc1cc(-c2ccc(CNc3ncnc(-c4ccc5ncccc5c4)c3F)cc2)ccn1` [Compound A-4], the half-maximal inhibitory concentration (IC50) was determined as 0.3 nM.

On to `Cc1cc(-c2ccc(CNc3ncnc(-c4ccc5nc(C)ccc5c4)c3F)cc2)ccn1` [Compound A-5], for which the IC50 turned out to be 2.1 nM.

Take `Cc1cc(-c2ccc(CNc3ncnc(-c4ccc5cnccc5c4)c3F)cc2)ccn1` [Compound A-6]: the half-inhibitory concentration (IC50) was 4.7 nM.

`Cc1cc(-c2ccc(CNc3ncnc(-c4ccc5ccncc5c4)c3F)cc2)ccn1` [Compound A-7]: the IC50 was 7.4 nM.

Regarding `Cc1cc(-c2ccc(CNc3ncnc(-c4ccc5nccnc5c4)c3F)cc2)ccn1` [Compound A-8], the IC50 is 1.5 nM.

Turning to `Cc1cc(-c2ccc(CNc3ncnc(-c4ccc5ncncc5c4)c3F)cc2)ccn1` [Compound A-9], the half-maximal inhibitory concentration (IC50) turned out to be 2.8 nM.

Regarding `Cc1cc(-c2ccc(CNc3ncnc(-c4ccc5[nH]cnc5c4)c3F)cc2)ccn1` [Compound A-10], the IC50 amounted to 285 nM.

With `Cc1cc(-c2ccc(CNc3ncnc(-c4ccc5nccn5c4)c3F)cc2)ccn1` [Compound A-11], the IC50 was 1.6 nM.

For the compound `Cc1cc(-c2ccc(CNc3ncnc(-c4ccc5ncsc5c4)c3F)cc2)ccn1` [Compound A-12], the IC50 came to 0.3 nM.

For `Cc1cc(-c2ccc(CNc3ncnc(-c4ccc5[nH]ncc5c4)c3F)cc2)ccn1` [Compound A-13], the IC50 was 99 nM.

Regarding `Cc1cc(-c2ccc(CNc3ncnc(-c4ccc5nn(C)cc5c4)c3F)cc2)ccn1` [Compound A-14], the IC50 was 5.9 nM.

Turning to `Cc1cc(-c2ccc(CNc3ncnc(-c4ccc5c(cnn5C)c4)c3F)cc2)ccn1` [Compound A-15], the half-inhibitory concentration (IC50) was found to be 19 nM.

As for `Cc1cc(-c2ccc(CNc3ncnc(-c4ccc5c(c4)OCCO5)c3F)cc2)ccn1` [Compound A-16], the IC50 was found to be 27 nM.

`Cc1cc(-c2ccc(CNc3ncnc(-c4ccccc4)c3F)cc2)ccn1` [Compound A-17]: the IC50 was above 1000 nM.

Take `Cc1cc(-c2ccc(CNc3ncnc(-c4ccccc4Cl)c3F)cc2)ccn1` [Compound A-18]: the IC50 is 480 nM.

`Cc1cc(-c2ccc(CNc3ncnc(-c4cccc(Cl)c4)c3F)cc2)ccn1` [Compound A-19]: the IC50 was 14 nM.

As to `Cc1cc(-c2ccc(CNc3ncnc(-c4ccc(Cl)cc4)c3F)cc2)ccn1` [Compound A-20], the half-inhibitory concentration (IC50) was 211 nM.

On to `Cc1cc(-c2ccc(CNc3ncnc(-c4ccc(Cl)c(Cl)c4)c3F)cc2)ccn1` [Compound A-21], for which the IC50 worked out at 14 nM.

As to `Cc1cc(-c2ccc(CNc3ncnc(N4CCc5ccccc5C4)c3F)cc2)ccn1` [Compound A-22], the IC50 came to 14 nM.

On to `Cc1cc(-c2ccc(CNc3ncnc(N4CCc5ccc(F)cc5C4)c3F)cc2)ccn1` [Compound A-23], for which the half-maximal inhibitory concentration (IC50) stood at 15 nM.

As to `Cc1cc(-c2ccc(CNc3ncnc(N4CCc5c(F)cccc5C4)c3F)cc2)ccn1` [Compound A-24], the IC50 is 37 nM.

With `Cc1cc(-c2ccc(CNc3ncnc(N4CCc5c(Br)cccc5C4)c3F)cc2)ccn1` [Compound A-25], the IC50 is above 1000 nM.

For the compound `Cc1cc(-c2ccc(CNc3ncnc(N4CCc5ncccc5C4)c3F)cc2)ccn1` [Compound A-26], the IC50 was 1.5 nM.

Consider `Cc1cc(-c2ccc(CN(C)c3ncnc(-c4ccc5ccccc5c4)c3F)cc2)ccn1` [Compound A-27, 5-fluoro-N-methyl-N-(4-(2-methylpyridin-4-yl)benzyl)-6-(naphthalen-2-yl)pyrimidin-4-amine], for which the IC50 amounted to 937 nM.

For the compound `Cc1cc(-c2ccc(C(C)Nc3ncnc(-c4ccc5ccccc5c4)c3F)cc2)ccn1` (centres unmarked) [Compound A-28], the 50% inhibitory concentration (IC50) was 17 nM.

For `Cc1cc(-c2ccc(CNc3ncnc(-c4ccc5ccccc5c4)c3F)s2)ccn1` [Compound A-29], the half-maximal inhibitory concentration (IC50) stood at 577 nM.

For `Cc1cc(-c2ccc(CNc3ncnc(-c4ccc5ccccc5c4)c3F)cn2)ccn1` [Compound A-30], the IC50 came out at 23 nM.

Turning to `Cc1cc(-c2ccc(CNc3ncnc(-c4ccc5ncccc5c4)c3F)cn2)ccn1` [Compound A-31], the IC50 was 1 nM.

Turning to `Cc1cc(-c2ccc(CNc3ncnc(N4CCc5ncccc5C4)c3F)cn2)ccn1` [Compound A-32], the IC50 is 2 nM.

For the compound `Cc1cc(-c2ncc(CNc3ncnc(-c4ccc5ccccc5c4)c3F)cc2C)ccn1` [Compound A-33], the IC50 came to 1.4 nM.

Consider `Cc1cc(-c2ncc(CNc3ncnc(-c4ccc5ncccc5c4)c3F)cc2C)ccn1` [Compound A-34], for which the half-inhibitory concentration (IC50) turned out to be 3 nM.

With `Cc1cc(-c2ncc(CNc3ncnc(-c4ccc5ccccc5c4)c3F)cc2F)ccn1` [Compound A-35], the 50% inhibitory concentration (IC50) turned out to be 4 nM.

Turning to `Cc1cc(-c2ncc(CNc3ncnc(-c4ccc5ncccc5c4)c3F)cc2F)ccn1` [Compound A-36], the IC50 worked out at 0.5 nM.

`Cc1cc(-c2ccc(CNc3ncnc(-c4ccc5ccccc5c4)c3F)nc2)ccn1` [Compound A-37]: the IC50 was 2.4 nM.

`Fc1c(NCc2ccc(-c3ccncc3)cc2)ncnc1-c1ccc2ccccc2c1` [Compound A-38]: the half-maximal inhibitory concentration (IC50) turned out to be 5 nM.

With `Cn1nccc1-c1ccc(CNc2ncnc(-c3ccc4ccccc4c3)c2F)cc1` [Compound A-39], the 50% inhibitory concentration (IC50) was 129 nM.

With `Fc1c(NCc2ccc(-n3ccnc3)cc2)ncnc1-c1ccc2ccccc2c1` [Compound A-40], the half-maximal inhibitory concentration (IC50) is above 1000 nM.

`Fc1c(NCc2ccc3cnccc3c2)ncnc1-c1ccc2ncccc2c1` [Compound A-41]: the IC50 was 55 nM.

As to `N#Cc1ccc2cc(CNc3ncnc(-c4ccc5ncccc5c4)c3F)ccc2c1` [Compound A-42, 6-((5-fluoro-6-(quinolin-6-yl)pyrimidin-4-ylamino)methyl)-2-naphthonitrile], the concentration for half-maximal inhibition (IC50) was determined as 0.7 nM.

As to `NC(=O)c1ccc2cc(CNc3ncnc(-c4ccc5ncccc5c4)c3F)ccc2c1` [Compound A-43, 6-((5-fluoro-6-(quinolin-6-yl)pyrimidin-4-ylamino)methyl)-2-naphthamide], the IC50 worked out at 75 nM.

On to `N#Cc1ccc2cc(CNc3ncnc(N4CCc5ncccc5C4)c3F)ccc2c1` [Compound A-44], for which the IC50 was 1 nM.

As to `Cc1cc(-c2ncc(CNc3ncnc(N4CCc5ncccc5C4)c3F)cc2F)ccn1` [Compound A-45], the half-inhibitory concentration (IC50) worked out at 0.4 nM.

On to `Cc1cc(-c2ncc(CNc3ncnc(N4CCc5ncccc5C4)c3F)cc2C)ccn1` [Compound A-46], for which the IC50 stood at 4.9 nM.

For the compound `Cc1cc(-c2ccc(CNc3ncnc(N4CCc5ncsc5C4)c3F)cc2)ccn1` [Compound A-47], the half-maximal inhibitory concentration (IC50) turned out to be 0.94 nM.

On to `Cc1cc(-c2ncc(CNc3ncnc(-c4ccc5ncsc5c4)c3F)cc2F)ccn1` [Compound A-49], for which the half-inhibitory concentration (IC50) was 0.39 nM.

Take `Cc1cc(-c2ccc(CNc3ncnc(-c4ccc5ncsc5c4)c3F)cn2)ccn1` [Compound A-50]: the half-inhibitory concentration (IC50) stood at 1 nM.

Regarding `Cc1cc(-c2ncc(CNc3ncnc(-c4ccc5ncsc5c4)c3F)cc2C)ccn1` [Compound A-51], the IC50 worked out at 1 nM.

Consider `Cc1cc(-c2ccc(CNc3ncnc(N4Cc5ccccc5C4)c3F)cc2)ccn1` [Compound A-52], for which the IC50 is 17 nM.

Take `Cc1cc(-c2ccc(CNc3ncnc(N4CCc5c(C#N)cccc5C4)c3F)cc2)ccn1` [Compound A-53]: the half-inhibitory concentration (IC50) came out at 89 nM.

On to `Cc1cc(-c2ncc(CNc3ncnc(N4CCc5ncsc5C4)c3F)cc2F)ccn1` [Compound A-54], for which the half-inhibitory concentration (IC50) was found to be 0.67 nM.

Consider `Cc1cc(-c2ccc(CNc3ncnc(-c4ccc5nncn5c4)c3F)cc2)ccn1` [Compound A-55], for which the IC50 amounted to 3000 nM.

Regarding `Cc1cc(-c2ncc(CNc3ncnc(N4CCc5ncccc5C4)c3F)cc2C#N)ccn1` [Compound A-56], the IC50 stood at 1 nM.

As for `Cc1cc(-c2ncc(CNc3ncnc(-c4ccc5ncccc5c4)c3F)cc2C#N)ccn1` [Compound A-57], the IC50 was found to be 0.39 nM.

Regarding `Cc1cc(-c2ncc(CNc3ncnc(N4CCn5ncnc5C4)c3F)cc2F)ccn1` [Compound A-58], the concentration for half-maximal inhibition (IC50) worked out at 34 nM.

On to `Cc1cc(-c2ccc(CNc3ncnc(N4CCn5c(nnc5C(F)(F)F)C4)c3F)cc2)ccn1` [Compound A-59], for which the IC50 was 230 nM.

On to `Cc1cc(-c2ncc(CNc3ncnc(-c4ccc5ncccc5c4)c3F)cn2)ccn1` [Compound A-60], for which the IC50 was 0.81 nM.

On to `Cc1cc(-c2ncc(CNc3ncnc(N4CCc5ncccc5C4)c3F)cn2)ccn1` [Compound A-61, 6-(7,8-dihydro-1,6-naphthyridin-6(5H)-yl)-5-fluoro-N-((2-(2-methylpyridin-4-yl)pyrimidin-5-yl)methyl)pyrimidin-4-amine], for which the half-inhibitory concentration (IC50) was 1.3 nM.

Regarding `Cc1cc(-c2ncc(CNc3ncnc(N4CCc5ncncc5C4)c3F)cc2F)ccn1` [Compound A-62], the IC50 came out at 6.2 nM.

Take `Cc1cc(-c2cnc(CNc3ncnc(-c4ccc5ncccc5c4)c3F)cn2)ccn1` [Compound A-63]: the IC50 came to 2 nM.
